Laboratory results published in US6962942B2, “Azacycloalkanone serine protease inhibitors” (3-Dimensional Pharmaceuticals, Inc., priority 1999, dated 2005).

Assays:
human factor Xa = target: T1, human factor Xa (Homo sapiens, UniProt P00742); assay: In vitro inhibition of purified factor Xa (p-nitroanilide substrate hydrolysis, Ki determination); format: biochemical; conditions: for Ki: substrate N-benzoyl-Ile-Glu-Gly-Arg-p-nitroanilide hydrochloride, pH 7.5, 37° C., read-out: Ki against factor Xa
T1 construct: purchased Enzyme Research Laboratories (South Bend, Indiana)
From the text: (§1) Reagents: All buffer salts were obtained from Sigma Chemical Company (St. Louis, Mo.), and were of the highest purity available. The enzyme substrates, N-benzoyl-Phe-Val-Arg-p-nitroanilide (Sigma B7632), N-benzoyl-Ile-Glu-Gly-Arg-p-nitroanilide hydrochloride (Sigma B2291), N-p-Tosyl-Gly-Pro-Lys-p-nitroanilide (Sigma T6140), N-succinyl-Ala-Ala-Pro-Phe-p-nitroanilide (Sigma S7388) and N-CBZ-Val-Gly-Arg-p-nitroanilide (Sigma C7271) were obtained from Sigma. N-succinyl-Ala-Ala-Pro-Arg-p-nitroanilide (BACHEM L-1720) and N-succinyl-Ala-Ala-Pro-Val-p-nitroanilide (BACHEM L-1770) were obtained from BACHEM (King of Prussia, Pa.).
(§2) Human α-thrombin, and human factor Xa were obtained from Enzyme Research Laboratories (South Bend, Indiana). Bovine α-chymotrypsin (Sigma C4129), bovine trypsin (Sigma T8642) and human kidney cell urokinase (Sigma U5004) were obtained from Sigma. Human leukocyte elastase was obtained from Elastin Products (Pacific, Mo.).
(§3) Ki Determinations: All assays are based on the ability of the test compound to inhibit the enzyme catalyzed hydrolysis of a peptide p-nitroanilide substrate. […] In general, substrate concentrations are lower than the experimentally determined value for Km. […]
(§4) In a typical Ki determination, into each well of a 96 well plate is pipetted […] of substrate solution, […] of test compound solution, and the plate allowed to thermally equilibrate at 37° C. in a Molecular Devices plate reader for >15 minutes. Reactions were initiated by the addition of a […] aliquot of enzyme and the absorbance increase at 405 nm is recorded for 15 minutes. […] The ratio of the velocity (rate of change in absorbance as a function of time) for a sample containing no test compound is divided by the velocity of a sample containing test compound, and is plotted as a function of test compound concentration. The data are fit to a linear regression, and the value of the slope of the line calculated. The inverse of the slope is the experimentally determined Ki value. […]

Human α-thrombin = target: T2, Human α-thrombin (Homo sapiens, UniProt P00734); assay: In vitro inhibition of purified thrombin (p-nitroanilide substrate hydrolysis, Ki determination); format: biochemical; conditions: substrate N-succinyl-Ala-Ala-Pro-Arg-p-nitroanilide, pH 7.5, 37° C.; read-out: Ki against thrombin
T2 construct: Human α-thrombin, and human factor Xa were obtained from Enzyme Research Laboratories; purchased Enzyme Research Laboratories (South Bend, Indiana)
From the text: as §1, §2, §3, §4

T1 sequence (P00742 235-488 limits assumed): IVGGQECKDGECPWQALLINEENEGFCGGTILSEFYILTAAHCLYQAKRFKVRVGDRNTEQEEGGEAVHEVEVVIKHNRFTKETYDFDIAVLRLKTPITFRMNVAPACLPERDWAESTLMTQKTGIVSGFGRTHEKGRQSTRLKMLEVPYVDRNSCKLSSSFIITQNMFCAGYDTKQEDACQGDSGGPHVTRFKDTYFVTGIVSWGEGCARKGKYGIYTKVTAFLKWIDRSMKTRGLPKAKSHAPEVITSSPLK
T1 sequence (P00742 41-179 partner limits assumed): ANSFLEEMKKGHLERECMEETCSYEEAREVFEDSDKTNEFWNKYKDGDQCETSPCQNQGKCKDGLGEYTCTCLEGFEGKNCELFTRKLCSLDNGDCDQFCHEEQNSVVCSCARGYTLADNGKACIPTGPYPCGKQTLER

activity against factor Xa (human factor Xa; at a concentration of 10 μM)	Ki (Human α-thrombin) [nM]	Ki (human factor Xa) [nM]	SMILES
no activity	700		N=C(N)NOCCNC(=O)CN1CCC[C@H](NS(=O)(=O)Cc2ccccc2)C1=O [Example 2]
	1200	2100	COc1ccc(S(=O)(=O)N[C@H]2CCCN(CC(=O)NCCONC(=N)N)C2=O)cc1 [Example 11]
	6400	360	N=C(N)NOCCNC(=O)CN1CCC[C@H](NS(=O)(=O)c2ccc(-c3ccc4ccccc4c3)cc2)C1=O [Example 42]
